#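 A five-concentration, 48-hour dose response in 96-well plates underlies each endpoint, interpolated linearly between surrounding concentrations. TGI: total growth inhibition.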
# Experiments:
# Experiment in all cases: NCI tumour cell line growth inhibition, 48 h
# [1] = test system: PC-3 prostate
# [2] = test system: NCI-H522 lung
# [3] = test system: SF-295 CNS
# [4] = test system: MCF7 breast
# [5] = test system: TK-10 renal
# [6] = test system: U251 CNS
# [7] = test system: KM12 colon
# [8] = test system: SK-MEL-28 melanoma
# [9] = test system: SR leukemia
# [10] = test system: NCI/ADR-RES ovarian
# [11] = test system: M14 melanoma
# [12] = test system: SNB-75 CNS
# [13] = test system: MOLT-4 leukemia
# [14] = test system: HOP-92 NSCLC
# [15] = test system: OVCAR-5 ovarian
# [16] = test system: OVCAR-4 ovarian
# [17] = test system: A549 NSCLC
# [18] = test system: SN12C renal
# [19] = test system: BT-549 breast
# [20] = test system: MDA-N
# [21] = test system: MALME-3M melanoma
# [22] = test system: T-47D breast
# [23] = test system: HCT-116 colon
# [24] = test system: SK-OV-3 ovarian
# [25] = test system: MDA-MB-435
# [26] = test system: COLO 205 colon
# [27] = test system: SK-MEL-5 melanoma
# [28] = test system: UACC-62 melanoma
# [29] = test system: SK-MEL-2 melanoma
# [30] = test system: CAKI-1 renal
# [31] = test system: ACHN renal
# [32] = test system: DU-145 prostate
# [33] = test system: OVCAR-3 ovarian
# [34] = test system: NCI-H460 lung
# [35] = test system: MDA-MB-231 breast
# [36] = test system: UO-31 renal
# [37] = test system: HS 578T breast
# [38] = test system: CCRF-CEM leukemia
# [39] = test system: LOX IMVI melanoma
# [40] = test system: SW-620 colon
# [41] = test system: RPMI-8226 leukemia
# [42] = test system: SF-539 CNS
# [43] = test system: K-562 leukemia
# [44] = test system: HCT-15 colon
# [45] = test system: HT29 colon
# [46] = test system: NCI-H23 lung
# [47] = test system: IGROV1 ovarian
# [48] = test system: 786-0 renal
# [49] = test system: SNB-19 CNS
# [50] = test system: HOP-62 NSCLC
# [51] = test system: OVCAR-8 ovarian
# [52] = test system: EKVX NSCLC
# [53] = test system: SF-268 CNS
# [54] = test system: RXF 393 renal
# [55] = test system: A498 renal
# [56] = test system: UACC-257 melanoma
# [57] = test system: NCI-H226 lung
# [58] = test system: HL-60(TB) leukemia
smiles,measurement,setting,value
CC(C)(C)c1ccc(O)c(C[N+](C)(C)C)c1,TGI,[1],> 100 µM
same,TGI,[2],> 100 µM
same,TGI,[3],> 100 µM
same,TGI,[4],> 100 µM
same,TGI,[5],> 100 µM
same,TGI,[6],> 100 µM
same,TGI,[7],> 100 µM
same,TGI,[8],> 100 µM
same,TGI,[9],> 100 µM
same,TGI,[10],> 100 µM
same,TGI,[11],> 100 µM
same,TGI,[12],> 100 µM
same,TGI,[13],> 100 µM
same,TGI,[14],> 100 µM
same,TGI,[15],> 100 µM
same,TGI,[16],> 100 µM
same,TGI,[17],> 100 µM
same,TGI,[18],> 100 µM
same,TGI,[19],> 100 µM
same,TGI,[20],> 100 µM
same,TGI,[21],> 100 µM
same,TGI,[22],> 100 µM
same,TGI,[23],> 100 µM
same,TGI,[24],> 100 µM
same,TGI,[25],> 100 µM
same,TGI,[26],> 100 µM
same,TGI,[27],> 100 µM
same,TGI,[28],> 100 µM
same,TGI,[29],> 100 µM
same,TGI,[30],> 100 µM
same,TGI,[31],> 100 µM
same,TGI,[32],> 100 µM
same,TGI,[33],> 100 µM
same,TGI,[34],> 100 µM
same,TGI,[35],> 100 µM
same,TGI,[36],> 100 µM
same,TGI,[37],> 100 µM
same,TGI,[38],> 100 µM
same,TGI,[39],> 100 µM
same,TGI,[40],> 100 µM
same,TGI,[41],> 100 µM
same,TGI,[42],> 100 µM
same,TGI,[43],> 100 µM
same,TGI,[44],> 100 µM
same,TGI,[45],> 100 µM
same,TGI,[46],> 100 µM
same,TGI,[47],> 100 µM
same,TGI,[48],> 100 µM
same,TGI,[49],> 100 µM
same,TGI,[50],> 100 µM
same,TGI,[51],> 100 µM
same,TGI,[52],> 100 µM
same,TGI,[53],> 100 µM
same,TGI,[54],> 100 µM
same,TGI,[55],> 100 µM
CCCCC/C=C\C=C1\C(=O)C=C[C@@H]1C/C=C\CCCC(=O)O,TGI,[1],5.13 µM
same,TGI,[3],11.5 µM
same,TGI,[4],12.9 µM
same,TGI,[5],18 µM
same,TGI,[6],8.39 µM
same,TGI,[7],11.9 µM
same,TGI,[8],13.9 µM
same,TGI,[9],5.53 µM
same,TGI,[10],2.66 µM
same,TGI,[11],15.1 µM
same,TGI,[12],17.7 µM
same,TGI,[13],60 µM
same,TGI,[15],9.72 µM
same,TGI,[16],6.28 µM
same,TGI,[17],18.7 µM
same,TGI,[18],8.06 µM
same,TGI,[19],5.13 µM
same,TGI,[20],7.14 µM
same,TGI,[21],25 µM
same,TGI,[56],14.7 µM
same,TGI,[22],24.5 µM
same,TGI,[23],2.74 µM
same,TGI,[24],14.4 µM
same,TGI,[57],14.8 µM
same,TGI,[25],9.16 µM
same,TGI,[26],9.36 µM
same,TGI,[27],11.2 µM
same,TGI,[28],12 µM
same,TGI,[29],9.85 µM
same,TGI,[30],14.9 µM
same,TGI,[31],9.48 µM
same,TGI,[32],15.5 µM
same,TGI,[33],9.82 µM
same,TGI,[34],16.5 µM
same,TGI,[35],18.7 µM
same,TGI,[36],13.4 µM
same,TGI,[37],13.4 µM
same,TGI,[38],3.28 µM
same,TGI,[39],8.19 µM
same,TGI,[40],9.09 µM
same,TGI,[41],3.15 µM
same,TGI,[42],12.8 µM
same,TGI,[58],17.9 µM
same,TGI,[43],60 µM
same,TGI,[44],14.9 µM
same,TGI,[45],12 µM
same,TGI,[46],15.5 µM
same,TGI,[47],8.93 µM
same,TGI,[48],9.73 µM
same,TGI,[49],12.1 µM
same,TGI,[50],8.62 µM
same,TGI,[51],3.73 µM
same,TGI,[52],5.61 µM
same,TGI,[53],13.6 µM
same,TGI,[54],6.93 µM
same,TGI,[55],21.4 µM
